Measured values published in patent US7105695B2, “Synthesis of combretastatin A-2 prodrugs” (priority 2001, dated 2006).
Values after ≈ are worked out from the molar mass of the structure shown. Read-outs that look alike come from different tables or passages of the source.

Columns and labels:
mitosis = settings: compared with the Z-isomer (1a); cited from earlier work
[1] = 25° C.
Neisseria gonorrhoeae = assay: Broth microdilution susceptibility assay, Neisseria gonorrhoeae; format: cell-based
Text: (§1) Compounds were screened against the bacteria Stenotrophomonas maltophilia, Micrococcus luteus, Staphylococcus aureus, Escherichia coli, Enterobacter cloacae, Enterococcus faecalis, Streptococcus pneumoniae, Neisseria gonorrhoeae, and the fungi Candida albicans and Cryptococcus neoformans, according to established broth microdilution susceptibility assays (NCCLS approved standard M7-A4, 1997; NCCLS approved standard M27-A, 1997). The minimum inhibitory concentration was defined as the lowest concentration of compound that inhibited all visible growth of the test organism (optically clear). Assays were repeated on separate days.

MCF-7 = assay: Human cancer cell line growth inhibition, breast MCF-7; format: cell-based; settings: MCF-7 human cancer cell line
NCI-H460 = assay: Human cancer cell line growth inhibition, lung-NSC NCI-H460; format: cell-based
NCI 60-cell screen = assay: NCI 60-cell screen; format: cell-based, human; settings: mean ± SE, read-out: mean-panel GI50
DU-145 = assay: Human cancer cell line growth inhibition, prostate DU-145; format: cell-based; settings: DU-145 human cancer cell line
bacteria and fungi panel = assay: Broth microdilution screen, whole panel of bacteria and fungi; format: cell-based; settings: among the compounds screened, Table III
Text: as §1

KM20L2 = assay: Human cancer cell line growth inhibition, colon KM20L2; format: cell-based
Micrococcus luteus = assay: Broth microdilution susceptibility assay, Micrococcus luteus; format: cell-based; settings: read-out: Minimum inhibitory concentration
Text: as §1

BXPC-3 = assay: Human cancer cell line growth inhibition, pancreas BXPC-3; format: cell-based; settings: BXPC-3 human cancer cell line
SF5268 = assay: Human cancer cell line growth inhibition, CNS gliob SF5268; format: cell-based
physchem = settings: 25 °C, water
Streptococcus pneumoniae = assay: Broth microdilution susceptibility assay, Streptococcus pneumoniae; format: cell-based; settings: read-out: Minimum inhibitory concentration
Text: as §1

Cryptococcus neoformans = assay: Broth microdilution susceptibility assay, Cryptococcus neoformans; format: cell-based; settings: read-out: Minimum inhibitory concentration
Text: as §1

Question: For COc1ccc(C=Cc2cc(OC)c3c(c2)OCO3)cc1O (single isomer, unassigned) [E-isomer of combretastatin A-2], which antimitotic activity (mitosis) is on record?
Answer: Its antimitotic activity is “considerably less antimitotic activity”.

Question: With COc1ccc(/C=C\c2cc(OC)c3c(c2)OCO3)cc1O [Compound 1a, Combretastatin A-2] as the compound, how does the Solubility in water [1] read?
Answer: The Solubility in water was less than 1000 µg/mL.

Question: And the MIC (Neisseria gonorrhoeae; read-out: Minimum inhibitory concentration)?
Answer: The MIC was 32 µg/mL (≈ 107 µM).

Question: What about the GI50 (MCF-7; MCF7) of the same compound?
Answer: The GI50 was 0.0042 µg/mL (≈ 0.014 µM).

Question: And the GI50 (NCI-H460)?
Answer: Its GI50 is 0.043 µg/mL (≈ 0.143 µM).

Question: What about the GI50 (NCI 60-cell screen; Homo sapiens) of the same compound?
Answer: Its GI50 is 83.3 ± 17.3 nM.

Question: And the GI50 (DU-145; read-out: GI50 Prostrate DU-145)?
Answer: Its GI50 is 0.0054 µg/mL (≈ 0.018 µM).

Question: What about the antimicrobial spectrum (bacteria and fungi panel) of the same compound?
Answer: The antimicrobial spectrum was “broadest antimicrobial spectra”.

Question: And the GI50 (KM20L2; KM-20L2)?
Answer: Its GI50 is 0.47 µg/mL (≈ 1.57 µM).

Question: And the MIC (Micrococcus luteus)?
Answer: The MIC was 64 µg/mL (≈ 213 µM).

Question: What about the GI50 (BXPC-3) of the same compound?
Answer: Its GI50 is 0.014 µg/mL (≈ 0.0466 µM).

Question: What about the GI50 (SF5268; read-out: GI50 CNSGliob SF5268) of the same compound?
Answer: The GI50 was 0.0083 µg/mL (≈ 0.0276 µM).

Question: What about the solubility (physchem) of the same compound?
Answer: Its solubility is less than 1000 µg/mL.

Question: What about the MIC (Streptococcus pneumoniae) of the same compound?
Answer: The MIC was 64 µg/mL (≈ 213 µM).

Question: What about the MIC (Cryptococcus neoformans) of the same compound?
Answer: Its MIC is 64 µg/mL (≈ 213 µM).

Question: For “Sodium combretastatin A-2 3′-O-phosphate [Compound 2a]”, which Solubility in water [1] is on record?
Answer: The Solubility in water was 18000 µg/mL.

Question: What about the Minimum inhibitory concentration (Neisseria gonorrhoeae) of the same compound?
Answer: Its Minimum inhibitory concentration is 8 µg/mL.

Question: And the “GI50 Breast MCF-7” value (MCF-7)?
Answer: Its value is 0.045 µg/mL.

Question: What about the “GI50 Lung-NSC NCI-H460” value (NCI-H460) of the same compound?
Answer: Its value is 0.41 µg/mL.

Question: What about the GI50 (NCI 60-cell screen) of the same compound?
Answer: The GI50 was 165 ± 30.7 nM.

Question: What about the “GI50 Prostrate DU-145” value (DU-145) of the same compound?
Answer: The value was 0.053 µg/mL.

Question: And the “GI50 Colon KM20L2” value (KM20L2)?
Answer: The value was 3.8 µg/mL.

Question: What about the “GI50 Pancreas BXPC-3” value (BXPC-3) of the same compound?
Answer: The value was 2.1 µg/mL.

Question: And the “GI50 CNSGliob SF5268” value (SF5268)?
Answer: Its value is 0.042 µg/mL.
